{"source": "patent US20220396777A1", "about": "“PATIENT-MATCHED ORGANOID SYSTEMS FOR STUDYING CANCER” (Dana-Farber Cancer Institute, Inc., priority 2019, published 2022)", "tested_on": "organoids from classical versus basal-like tumors", "test": "IFNγ treatment of organoids from classical and basal-like tumors", "type": "cell-based, human", "description": "FIG. 37—Micrographs and graph showing results of IFNγ treatment in organoids from classical and basal-like tumors.\nApplicants next asked whether organoids from classical versus basal-like tumors respond differently to addition of IFNγ.", "data": [{"substance": "IFNγ: cytokine (type II interferon) added to organoid cultures", "values": [{"measurement": "effect on expression state in organoids", "setting": "classical expression state, patient-derived PDAC organoids (FIG. 37)", "result": "select against the classical expression state"}, {"measurement": "return to a basal state", "setting": "patient-derived PDAC organoids (FIG. 37)", "result": "may not be sufficient to drive complete return to a basal state"}, {"measurement": "growth inhibition by IFNγ", "setting": "patient-derived PDAC organoids, classical versus basal-like tumors, preliminary results (FIG. 37)", "result": "more pronounced in organoids derived from classical tumors"}]}]}
